Source: PubChem BioAssay (NCI)
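Growth conditions: 96-well plates. Treatment: test compound, 48 hours, 5 concentrations. Analysis: linear interpolation between bracketing concentrations; unreached endpoints set to highest concentration. At the TGI there is no net growth.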

Assays:
Assay in all cases: inhibition of tumour cell growth, NCI panel, 48 h
A498 renal = system: A498 renal
A549 NSCLC = system: A549 NSCLC
CAKI-1 renal = system: CAKI-1 renal
EKVX NSCLC = system: EKVX NSCLC
HL-60(TB) leukemia = system: HL-60(TB) leukemia
HOP-62 NSCLC = system: HOP-62 NSCLC
HOP-92 NSCLC = system: HOP-92 NSCLC
MCF7 breast = system: MCF7 breast
MDA-MB-231 breast = system: MDA-MB-231 breast
MDA-MB-435 = system: MDA-MB-435
MDA-N = system: MDA-N
NCI/ADR-RES ovarian = system: NCI/ADR-RES ovarian
OVCAR-8 ovarian = system: OVCAR-8 ovarian
SF-295 CNS = system: SF-295 CNS
SF-539 CNS = system: SF-539 CNS
SK-OV-3 ovarian = system: SK-OV-3 ovarian
SN12C renal = system: SN12C renal
SW-620 colon = system: SW-620 colon
TK-10 renal = system: TK-10 renal
NCI-H23 lung = system: NCI-H23 lung

Measured: TGI

OCC1OC(Oc2cc(O)cc(/C=C/c3ccc(O)cc3)c2)C(O)C(O)C1O (configuration not stated)
> 100 µM: A498 renal | A549 NSCLC | CAKI-1 renal | EKVX NSCLC | HL-60(TB) leukemia | HOP-62 NSCLC | HOP-92 NSCLC | MCF7 breast | MDA-MB-231 breast | MDA-MB-435 | MDA-N | NCI/ADR-RES ovarian | OVCAR-8 ovarian | SF-295 CNS | SF-539 CNS | SK-OV-3 ovarian | SN12C renal | SW-620 colon | TK-10 renal

CCOC(=O)c1cc(C2CCN(CC(C)CC)C2=S)c(-c2cc(C)no2)[nH]1 (configuration not stated)
> 100 µM: A498 renal | A549 NSCLC | CAKI-1 renal | EKVX NSCLC | HL-60(TB) leukemia | HOP-62 NSCLC | HOP-92 NSCLC | MCF7 breast | MDA-MB-231 breast | MDA-MB-435 | MDA-N | NCI-H23 lung | NCI/ADR-RES ovarian | OVCAR-8 ovarian | SF-295 CNS | SF-539 CNS | SK-OV-3 ovarian | SN12C renal | SW-620 colon

N#CCCSC1SC(=C2SC3=C(SCCS3)S2)SC1SCCC#N (configuration not stated)
> 100 µM: A498 renal | A549 NSCLC | CAKI-1 renal | EKVX NSCLC | HL-60(TB) leukemia | HOP-62 NSCLC | HOP-92 NSCLC | MCF7 breast | MDA-MB-231 breast | MDA-MB-435 | MDA-N | NCI-H23 lung | NCI/ADR-RES ovarian | OVCAR-8 ovarian | SF-295 CNS | SF-539 CNS | SN12C renal | SW-620 colon | TK-10 renal

O=C1NC(=S)NC(=O)C1C(c1ccc([N+](=O)[O-])cc1)C1C(=O)NC(=S)NC1=O
> 100 µM: A498 renal | A549 NSCLC | CAKI-1 renal | EKVX NSCLC | HL-60(TB) leukemia | HOP-62 NSCLC | HOP-92 NSCLC | MCF7 breast | MDA-MB-231 breast | MDA-MB-435 | MDA-N | NCI-H23 lung | NCI/ADR-RES ovarian | OVCAR-8 ovarian | SF-295 CNS | SN12C renal | SW-620 colon | TK-10 renal

c1ccc(-c2cs[s+]c2)cc1
> 100 µM: A498 renal | A549 NSCLC | CAKI-1 renal | EKVX NSCLC | HL-60(TB) leukemia | HOP-62 NSCLC | HOP-92 NSCLC | MCF7 breast | MDA-MB-231 breast | MDA-MB-435 | MDA-N | NCI-H23 lung | NCI/ADR-RES ovarian | OVCAR-8 ovarian | SF-295 CNS | SK-OV-3 ovarian | SN12C renal | SW-620 colon | TK-10 renal

C/C(=N\Nc1ccccc1Br)c1cccc(/C(C)=N/Nc2ccccc2Br)n1
> 100 µM: A498 renal | A549 NSCLC | CAKI-1 renal | EKVX NSCLC | HL-60(TB) leukemia | HOP-62 NSCLC | HOP-92 NSCLC | MCF7 breast | MDA-MB-231 breast | MDA-MB-435 | MDA-N | NCI-H23 lung | NCI/ADR-RES ovarian | OVCAR-8 ovarian | SF-295 CNS | SF-539 CNS | SN12C renal | SW-620 colon | TK-10 renal

NC1CC(N)c2c(Br)sc(Br)c21 (configuration not stated)
> 100 µM: A498 renal | A549 NSCLC | CAKI-1 renal | EKVX NSCLC | HOP-62 NSCLC | HOP-92 NSCLC | MCF7 breast | MDA-MB-231 breast | MDA-MB-435 | MDA-N | NCI-H23 lung | NCI/ADR-RES ovarian | OVCAR-8 ovarian | SF-295 CNS | SF-539 CNS | SK-OV-3 ovarian | SN12C renal | SW-620 colon | TK-10 renal
